Test results reported in US20070025902A1, “RECOVERY OF FLUORINATED CARBOXYLIC ACID FROM ADSORBENT PARTICLES” (priority 2005, published 2007).
Marks after values point to notes of the source that are not given here.

Assay: Determination of bio-accumulation: urinary clearance pharmacokinetic study in rats
Settings: oral gavage; for Compound-related Effects: clinical signs of toxicity and gross necropsy 96 hours post-dose
[1] = parent compound recovered in urine after 96 h, 73 micro Moles per kg body weight
[2] = renal elimination half-life of parent compound from urine, 73 micro Moles per kg body weight, exponential least squares curve fitting
[3] = 73 micro Moles per kg body weight
[4] = no parent compound in urine, based on elimination of the major metabolite C3F7—O—CHFCOO−, 73 micro Moles per kg

Structure (SMILES) | % Recovery (96 h) [1] [%] | T½ [2] [h] | Compound-related Effects [3] | % Recovery (96 h) [4] | T½ (h) [4] | T½ (h) [2]
N.O=C(O)C(F)(F)OC(F)(F)C(F)(F)C(F)(F)OC(F)(F)F [Compound 1, CF3—O—(CF2)3—O—CF2—COONH4] | 73 |  |  |  |  | 
N.O=C(O)C(F)(F)OC(F)(F)OC(F)(F)F [Compound 2, CF3—OCF2—O—CF2—COONH4] | 96 | 12 |  |  |  | 
N.O=C(O)C(F)(F)OC(F)(F)OC(F)(F)OC(F)(F)F [Compound 3, CF3—OCF2—OCF2—OCF2—COONH4] | 100 | 12 |  |  |  | 
N.O=C(O)C(F)(F)OC(F)(F)C(F)(F)C(F)(F)OC(F)(F)F [Compound 4, CF3—(OCF2)3—OCF2—COONH4] | 50 |  |  |  |  | 
N.O=C(O)C(F)(F)OC(F)(F)C(F)(F)C(F)(F)F [Compound 5, C3F7—O—CF2—COONH4] | 97 | 11 |  |  |  | 
N.O=C(O)C(F)(F)C(F)(F)OC(F)(F)F [Compound 6, CF3—O—CF2—CF2—COONH4] | 100 | 11 |  |  |  | 
N.O=C(O)C(F)(F)C(F)(F)OC(F)(F)C(F)(F)F [Compound 7, C2F5—O—CF2—CF2—COONH4] | 100 | 10 |  |  |  | 
N.O=C(O)C(F)(F)C(F)(F)OC(F)(F)C(F)(F)C(F)(F)F [Compound 8, C3F7—O—CF2—CF2—COONH4] | 82 | 12 |  |  |  | 
N.O=C(O)C(F)(F)C(F)(F)OC(F)(F)C(F)(F)C(F)(F)C(F)(F)F [Compound 9, C4F9—O—CF2—CF2—COONH4] | 42 | 31 | Hepatomegaly |  |  | 
N.O=C(O)C(F)(F)OC(F)(F)C(F)(F)OC(F)(F)C(F)(F)F [Compound 10, C2F5—O—CF2—CF2—O—CF2—COONH4] | 99 | 10 |  |  |  | 
N.O=C(O)C(F)(F)C(F)OC(F)(F)C(F)(F)C(F)(F)OC(F)(F)F (centres unmarked) [Compound 11, CF3—O—CF2—CF2—CF2—O—CHF—CF2—COONH4] | 84 | 12 |  |  |  | 
N.O=C(O)C(F)OC(F)(F)C(F)(F)C(F)(F)OC(F)(F)F (centres unmarked) [Compound 12, CF3—O—CF2—CF2—CF2—O—CHF—COONH4] | 95 | 11 |  |  |  | 
N.O=C(O)C(F)(F)C(F)OC(F)(F)C(F)(F)C(F)(F)F (centres unmarked) [Compound 13, C3F7—O—CFH—CF2COONH4] | 94 | 11 |  |  |  | 
N.O=C(O)C(F)(F)C(F)(F)C(F)(F)C(F)(F)C(F)(F)OC(F)C(F)(F)F (centres unmarked) [Compound 14, CF3—CFH—O—(CF2)5—COONH4] | 32 | 24 | Hepatomegaly |  |  | 
N.O=C(O)C(F)(F)C(F)(F)C(F)(F)OC(F)C(F)(F)F (centres unmarked) [Compound 15, CF3—CFH—O—(CF2)3—COONH4] | 95 | 8 |  |  |  | 
N.O=C(O)COC(F)(F)C(F)OC(F)(F)C(F)(F)C(F)(F)F (centres unmarked) [Compound 16, C3F7—O—CFH—CF2—O—CH2—COONH4] |  |  |  | 65* % | 13* h | 
N.O=C(O)C(F)(F)C(F)(F)C(F)(F)C(F)(F)C(F)(F)C(F)(F)C(F)(F)F [Compound C-1, C7F15COONH4, reference compound] | 6 |  | Hepatomegaly |  |  | ˜550 h
N.O=C(O)C(F)(F)OC(F)(F)C(F)(OC(F)(F)C(F)(F)C(F)(F)F)C(F)(F)F (centres unmarked) [Compound C-3, CF3CF2CF2OCF(CF3)CF2OCF2COONH4, reference compound] | 5 | 95 | Hepatomegaly |  |  | 
